Measurements from US20260232767A1, “INTERLEUKIN-23 RECEPTOR ANTAGONIST PEPTIDES FOR USE IN THE TREATMENT OF PSORIASIS” (Janssen Pharmaceutica NV, priority 2023, published 2026).

Test system: subjects with moderate-to-severe plaque psoriasis
Test: PSSD symptoms and signs scores, Example 1
Format: in vivo, human
Conditions: each dose group vs placebo; Week 16
Text: The Psoriasis Symptom and Sign Diary (PSSD) includes patient-reported outcome (PRO) questionnaires designed to measure the severity of psoriasis symptoms and signs for the assessment of treatment benefit. This study uses a 7-day recall version of the PSSD that asks the participant to answer the questions thinking about the last 7 days. The PSSD is a self-administered PRO instrument and includes 11 items covering symptoms (itch, pain, stinging, burning, and skin tightness) and patient-observable signs (skin dryness, cracking, scaling, shedding or flaking, redness, and bleeding) using 0 to 10 numerical rating scales for severity. Two subscores will be derived each ranging from 0 to 100: the psoriasis symptom score and the psoriasis sign score. A higher score indicates more severe disease.
Efficacy, PK, immunogenicity, biomarker, pharmacogenomic, and safety criteria were measured during the treatment. Subjects were provided with an electronic device to enter patient-reported outcome (PRO) data at each study visit. All visit-specific PRO assessments were conducted/completed before any tests, procedures or other clinical assessments, with the exception of the urine pregnancy test and urinalysis, to prevent influencing subject perceptions.

For `CC(=O)NCCCC[C@@H]1NC(=O)[C@H](Cc2c[nH]c3c(C)cccc23)NC(=O)[C@H]([C@@H](C)O)NC(=O)[C@H](CC(N)=O)NC(=O)[C@@H](NC(C)=O)C(C)(C)SSC(C)(C)[C@@H](C(=O)N[C@@H](Cc2ccc(OCCN)cc2)C(=O)N[C@@H](Cc2ccc3ccccc3c2)C(=O)NC2(C(=O)N[C@@H](CCC(=O)O)C(=O)N[C@@H](CC(N)=O)C(=O)N[C@@H](Cc3cccnc3)C(=O)N(C)CC(N)=O)CCOCC2)NC1=O` [IL-23 receptor antagonist peptide, Ac-[Pen]*-N-T-[W(7-Me)]-[Lys(Ac)]-[Pen]*-Phe[4-(2-aminoethoxy)]-[2-Nal]-[THP]-E-N-[3-Pal]-Sarc-NH2 (*[Pen]-[Pen]* formdisulfidebond)], the “Improvement (reduction) in PSSD signs score from baseline” value was “significantly greater improvement” and the “Improvement (reduction) in PSSD symptoms score from baseline” value was “significantly greater improvement”.
